Patent US6413986B1, “[1-indanon-2-yl]methylpiperidines” (Aventis Pharmaceuticals Inc., priority 1991, dated 2002)

Target: T1, Acetylcholinesterase (Rattus norvegicus, UniProt P37136)
T1 construct: Male Wistar rats are decapitated, brains rapidly removed, corpora striata dissected free, weighed and homogenized; from tissue; host or cells: rat brain corpora striata homogenate (male Wistar rats)
T1 sequence (P37136 32-614): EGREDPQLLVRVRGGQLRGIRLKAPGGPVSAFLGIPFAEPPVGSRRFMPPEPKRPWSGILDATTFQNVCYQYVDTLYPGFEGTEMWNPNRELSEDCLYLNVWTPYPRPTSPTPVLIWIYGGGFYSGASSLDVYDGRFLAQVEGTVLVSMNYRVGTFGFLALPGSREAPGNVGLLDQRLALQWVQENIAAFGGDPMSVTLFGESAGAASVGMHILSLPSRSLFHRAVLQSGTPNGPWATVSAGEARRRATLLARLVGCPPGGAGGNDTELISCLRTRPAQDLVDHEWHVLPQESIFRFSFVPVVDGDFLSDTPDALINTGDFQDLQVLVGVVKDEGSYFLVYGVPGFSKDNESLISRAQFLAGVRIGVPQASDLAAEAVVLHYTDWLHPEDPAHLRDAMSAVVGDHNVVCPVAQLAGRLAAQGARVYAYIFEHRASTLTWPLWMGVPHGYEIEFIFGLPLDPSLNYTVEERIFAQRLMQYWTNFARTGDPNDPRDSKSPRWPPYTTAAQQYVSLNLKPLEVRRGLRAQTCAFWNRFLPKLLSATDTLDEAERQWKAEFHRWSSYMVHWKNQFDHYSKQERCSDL
Assay: inhibition of acetyl cholinesterase activity (acetylthiocholine/DTNB spectrophotometric assay, rat striatal homogenate)
Type: biochemical, Male Wistar rats
Settings: rat corpora striata homogenate; preincubated for 10 minutes at 37° C.; substrate acetylthiocholine 5 mM final; DTNB 0.5 mM; 412 nm; log-probit analysis
Method: The [1-indanon-2-yl]methylpiperidines of the present invention are useful as agents for the relief of memory dysfunction, particularly dysfunctions associated with decreased cholinergic activity such as those found in Alzheimer's disease.
4. A 2 mM stock solution of the test drug is made up in a suitable solvent and q.sed to volume with 0.5 mM DTNB (reagent 3). Drugs are serially diluted (1:10) such that the final concentration (in cuvette) is 10^−4M and screened for activity. If active, IC50 values are determined from the inhibitory activity of subsequent concentrations.
Male Wistar rats are decapitated, brains rapidly removed, corpora striata dissected free, weighed and homogenized in 19 volumes (approximately 7 mg protein/ml) of 0.05 M sodium phosphate, pH 7.2 using a Potter-Elvehjem homogenizer. A 25 μl aliquot of this suspension is added to 1 ml of the vehicle or various concentrations of the test drug and preincubated for 10 minutes at 37° C.
Enzyme activity is measured with the Beckman DU-50 spectrophotometer. This method can be used for IC50 determinations and for measuring kinetic constants.
Reagents are added to the blank and sample cuvettes as follows:
Blank values are determined for each run to control for non-enzymatic hydrolysis of substrate and these values are automatically subtracted by the kindata program available on kinetics soft-pac module. This program also calculates the rate of absorbance change for each cuvette.
Substrate concentration is 10 mM diluted 1:2 in assay yielding final concentration of 5 mM. DTNB concentration is 0.5 mM final concentration
% Inhibition=slope control-slope drug/slope control×100
IC50 values are calculated from log-probit analysis.

Compound	IC50
O=C(NCc1ccccc1)Oc1ccc2c(c1)C(=O)C(CC1CCN(Cc3cccc(F)c3)CC1)C2 (stereo not shown) [1-(3-Fluorobenzyl)-4-[[6-(benzylaminocarbonyloxy)-1-indanon]-2-yl]-methylpiperidine]	3170 nM
CNC(=O)Oc1ccc2c(c1)C(=O)C(CC1CCN(Cc3cccc(F)c3)CC1)C2 (stereo not shown) [1-(3-Fluorobenzyl)-4-[[6-(methylaminocarbonyloxy)-1-indanon]-2-yl]methylpiperidine]	1510 nM
CCCCNC(=O)Oc1ccc2c(c1)C(=O)C(CC1CCN(Cc3ccccc3)CC1)C2 (stereo not shown) [1-Benzyl-4-[[6-(butylaminocarbonyloxy)-1-indanon]-2-yl]methylpiperidine]	1430 nM
CNC(=O)Oc1ccc2c(c1)C(=O)C(CC1CCN(Cc3ccccc3)CC1)C2 (stereo not shown) [1-Benzyl-4-[[6-methylaminocarbonyloxy)-1-indanon]-2-yl]methylpiperidine]	1340 nM
